Reference: US8163724B2, “Glucocorticosteroids, processes for their preparation, pharmaceutical compositions containing them and their use in therapy” (AstraZeneca AB, priority 2007, dated 2012)
pIC50: −log10 of the molar value.

molecular target: T1, recombinant human GR (Homo sapiens, UniProt P04150); assay: Human Glucocorticoid Receptor (GR) Assay (fluorescence polarization, Panvera/Invitrogen kit); assay type: binding; settings: fluorescence polarization; GS Red tracer; 2 hours at room temperature; 100% control 10 μM Dexamethasone; read-out: Inhibition of GR binding, IC50
T1 construct: purchased Panvera/Invitrogen P2812 (kit P2893)
T1 sequence (P04150 1-777): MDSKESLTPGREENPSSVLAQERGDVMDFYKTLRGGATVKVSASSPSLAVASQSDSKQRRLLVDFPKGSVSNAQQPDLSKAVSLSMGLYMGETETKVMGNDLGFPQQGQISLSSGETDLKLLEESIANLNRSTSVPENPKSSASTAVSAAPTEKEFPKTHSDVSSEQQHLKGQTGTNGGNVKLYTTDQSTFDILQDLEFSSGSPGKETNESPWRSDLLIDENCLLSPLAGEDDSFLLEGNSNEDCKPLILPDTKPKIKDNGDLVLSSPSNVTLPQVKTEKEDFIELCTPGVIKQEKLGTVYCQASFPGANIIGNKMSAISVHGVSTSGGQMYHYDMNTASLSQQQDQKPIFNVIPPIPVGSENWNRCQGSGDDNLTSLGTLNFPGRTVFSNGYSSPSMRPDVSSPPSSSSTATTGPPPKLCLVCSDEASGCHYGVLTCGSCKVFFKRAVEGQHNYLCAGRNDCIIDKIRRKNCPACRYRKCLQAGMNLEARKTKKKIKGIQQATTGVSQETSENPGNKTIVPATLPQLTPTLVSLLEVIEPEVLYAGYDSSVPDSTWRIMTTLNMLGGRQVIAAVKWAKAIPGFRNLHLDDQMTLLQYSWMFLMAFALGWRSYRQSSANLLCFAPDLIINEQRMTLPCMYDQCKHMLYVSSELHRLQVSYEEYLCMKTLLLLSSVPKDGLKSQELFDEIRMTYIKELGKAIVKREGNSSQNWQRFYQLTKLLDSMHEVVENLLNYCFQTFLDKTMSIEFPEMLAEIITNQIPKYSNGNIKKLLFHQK
Protocol: Human Glucocorticoid Receptor (GR) Assay
The assay is based on a commercial kit from Panvera/Invitrogen (Part number P2893). The assay technology is fluorescence polarization. […] The GR and Stabilizing Peptide reagents are stored at −70° C. while the GS Red is stored at −20° C. Also included in the kit are 1M DTT (Panvera, Part number P2325, stored at −20° C.) and GR Screening buffer 10× (Panvera, Part number P2814, stored at −70° C. initially but once thawed stored at room temperature). Avoid repeated freeze/thaws for all reagents. The GR Screening buffer 10× comprises 100 mM potassium phosphate, 200 mM sodium molybdate, 1 mM EDTA and 20% DMSO.
0% control was 100% DMSO and 100% control was 10 μM Dexamethasone. Background solution (8 μL; assay buffer 10×, Stabilizing Peptide, DTT and ice cold MQ water) was added to the background wells. GS Red solution (7 μL; assay buffer 10×, Stabilizing Peptide, DTT, GS Red and ice cold water) was added to all wells except background wells. GR solution (7 μL; assay buffer 10×, Stabilizing Peptide, DTT, GR and ice cold water) was added to all wells. The plate was sealed and incubated in a dark at room temperature for 2 hours.

SMILES	pIC50
C[C@]12Cc3cnn(-c4ccc(F)cc4)c3C=C1CC[C@@H]1[C@@H]2[C@@H](O)C[C@@]2(C)[C@H]1CC[C@]2(OC(=O)c1cocn1)C(=O)SCF [Example 45, (1R,3aS,3bS,10aR,10bS,11S,12aS)-1-{[(Fluoromethyl)thio]carbonyl}-7-(4-fluoro-phenyl)-11-hydroxy-10a,12a-dimethyl-1,2,3,3a,3b,4,5,7,10,10a,10b,11,12,12a-tetradecahydrocyclopenta[5,6]naphtho[1,2-f]indazol-1-yl 1,3-oxazole-4-carboxylate]	8.47
C[C@]12Cc3cnn(-c4ccc(F)cc4)c3C=C1CC[C@@H]1[C@@H]2[C@@H](O)C[C@@]2(C)[C@H]1CC[C@]2(OC(=O)C1(C#N)CC1)C(=O)SCC#N [Example 146, (1R,3aS,3bS,10aR,10bS,11S,12aS)-1-{[(Cyanomethyl)sulfanyl]carbonyl}-7-(4-fluorophenyl)-11-hydroxy-10a,12a-dimethyl-1,2,3,3a,3b,4,5,7,10,10a,10b,11,12,12a-tetradecahydrocyclopenta[5,6]naphtho[1,2-f]indazol-1-yl 1-cyanocyclopropane Carboxylate]	8.47
Cc1ncsc1C(=O)O[C@]1(C(=O)SCF)CC[C@H]2[C@@H]3CCC4=Cc5c(cnn5-c5ccc(F)cc5)C[C@]4(C)[C@H]3[C@@H](O)C[C@@]21C [Example 1, (1R,3aS,3bS,10aR,10bS,11S,12aS)-1-{[(Fluoromethyl)thio]carbonyl}-7-(4-fluorophenyl)-11-hydroxy-10a,12a-dimethyl-1,2,3,3a,3b,4,5,7,10,10a,10b,11,12,12a-tetradecahydrocyclopenta[5,6]naphtho[1,2-f]indazol-1-yl 4-methyl-1,3-thiazole-5-carboxylate]	8.12
C[C@]12Cc3cnn(-c4cc(F)cc(F)c4)c3C=C1CC[C@@H]1[C@@H]2[C@@H](O)C[C@@]2(C)[C@H]1CC[C@]2(OC(=O)c1ccco1)C(=O)SCC#N [Example 102, (1R,3aS,3bS,10aR,10bS,11S,12aS)-1-{[(Cyanomethyl)thio]carbonyl}-7-(3,5-difluorophenyl)-11-hydroxy-10a,12a-dimethyl-1,2,3,3a,3b,4,5,7,10,10a,10b,11,12,12a-tetradecahydrocyclopenta[5,6]naphtho[1,2-f]indazol-1-yl furan-2-carboxylate]	8.09
C[C@]12Cc3cnn(-c4ccc(F)nc4)c3C=C1CC[C@@H]1[C@@H]2[C@@H](O)C[C@@]2(C)[C@H]1CC[C@]2(OC(=O)c1cocn1)C(=O)SCCO [Example 162, (1R,3aS,3bS,10aR,10bS,11S,12aS)-7-(6-Fluoropyridin-3-yl)-11-hydroxy-1-{[(2-hydroxyethyl)sulfanyl]carbonyl}-10a,12a-dimethyl-1,2,3,3a,3b,4,5,7,10,10a,10b,11,12,12a-tetradecahydrocyclopenta[5,6]naphtho[1,2-f]indazol-1-yl 1,3-oxazole-4-carboxylate]	8.74
Cc1ncsc1C(=O)O[C@]1(C(=O)SCC#N)CC[C@H]2[C@@H]3CCC4=Cc5c(cnn5-c5ccc(F)cc5)C[C@]4(C)[C@H]3[C@@H](O)C[C@@]21C [Example 2, (1R,3aS,3bS,10aR,10bS,11S,12aS)-1-{[(Cyanomethyl)thio]carbonyl}-7-(4-fluorophenyl)-11-hydroxy-10a,12a-dimethyl-1,2,3,3a,3b,4,5,7,10,10a,10b,11,12,12a-tetradecahydrocyclopenta[5,6]naphtho[1,2-f]indazol-1-yl 4-methyl-1,3-thiazole-5-carboxylate]	8.13
CCC(=O)O[C@]1(C(=O)SCF)CC[C@H]2[C@@H]3CCC4=Cc5c(cnn5-c5ccc(F)cc5)C[C@]4(C)[C@@]3(F)[C@@H](O)C[C@@]21C [Example 200, (1R,3aS,3bS,10aS,10bR,11S,12aS)-1-{[(Fluoromethyl)sulfanyl]carbonyl}-10b-fluoro-7-(4-fluorophenyl)-11-hydroxy-10a,12a-dimethyl-1,2,3,3a,3b,4,5,7,10,10a,10b,11,12,12a-tetradecahydrocyclopenta[5,6]naphtho[1,2-f]indazol-1-yl propanoate]	7.85
CSCOC(=O)[C@@]1(OC(C)=O)CC[C@H]2[C@@H]3CCC4=Cc5c(cnn5-c5ccc(F)cc5)C[C@]4(C)[C@H]3[C@@H](O)C[C@@]21C [Example 119, (Methylsulfanyl)methyl(1R,3aS,3bS,10aR,10bS,11S,12aS)-1-(acetyloxy)-7-(4-fluorophenyl)-11-hydroxy-10a,12a-dimethyl-1,2,3,3a,3b,4,5,7,10,10a,10b,11,12,12a-tetradecahydrocyclopenta[5,6]naphtho[1,2-f]indazole-1-carboxylate]	8.34
C[C@]12Cc3cnn(-c4ccc(F)cc4)c3C=C1CC[C@@H]1[C@@H]2[C@@H](O)C[C@@]2(C)[C@H]1CC[C@]2(OC(=O)C1CC1)C(=O)SCCO [Example 36, (1R,3aS,3bS,10aR,10bS,11S,12aS)-7-(4-Fluorophenyl)-11-hydroxy-1-{[(2-hydroxy-ethyl)thio]carbonyl}-10a,12a-dimethyl-1,2,3,3a,3b,4,5,7,10,10a,10b,11,12,12a-tetradecahydrocyclopenta[5,6]naphtho[1,2-f]indazol-1-yl cyclopropanecarboxylate]	8.60
CCC(=O)O[C@]1(C(=O)SCCC#N)CC[C@H]2[C@@H]3CCC4=Cc5c(cnn5-c5ccc(F)cc5)C[C@]4(C)[C@H]3[C@@H](O)C[C@@]21C [Example 16, (1R,3aS,3bS,10aR,10bS,11S,12aS)-{[(2-Cyanoethyl)thio]carbonyl}-7-(4-fluoro-phenyl)-11-hydroxy-10a,12a-dimethyl-1,2,3,3a,3b,4,5,7,10,10a,10b,11,12,12a-tetradecahydrocyclopenta[5,6]naphtho[1,2-f]indazol-1-yl propanoate]	8.47
C[C@]12Cc3cnn(-c4ccc(F)cc4)c3C=C1CC[C@@H]1[C@@H]2[C@@H](O)C[C@@]2(C)[C@H]1CC[C@]2(OC(=O)c1ccoc1)C(=O)SCF [Example 51, (1R,3aS,3bS,10aR,10bS,11S,12aS)-1-{[(Fluoromethyl)thio]carbonyl}-7-(4-fluoro-phenyl)-11-hydroxy-10a,12a-dimethyl-1,2,3,3a,3b,4,5,7,10,10a,10b,11,12,12a-tetradecahydrocyclopenta[5,6]naphtho[1,2-f]indazol-1-yl furan-3-carboxylate]	8.16
CCC(=O)O[C@]1(C(=O)SCC#N)CC[C@H]2[C@@H]3CCC4=Cc5c(cnn5-c5ccc(F)cc5)C[C@]4(C)[C@H]3[C@@H](O)C[C@@]21C [Example 10, (1R,3aS,3bS,10aR,10bS,11S,12aS)-1-{[(Cyanomethyl)thio]carbonyl}-7-(4-fluorophenyl)-11-hydroxy-10a,12a-dimethyl-1,2,3,3a,3b,4,5,7,10,10a,10b,11,12,12a-tetradecahydrocyclopenta[5,6]naphtho[1,2-f]indazol-1-yl propionate]	8.49
COCC(=O)O[C@]1(C(=O)SCF)CC[C@H]2[C@@H]3CCC4=Cc5c(cnn5-c5ccc(F)cc5)C[C@]4(C)[C@@]3(F)[C@@H](O)C[C@@]21C [Example 198, (1R,3aS,3bS,10aS,10bR,11S,12aS)-1-{[(Fluoromethyl)sulfanyl]carbonyl}-10b-fluoro-7-(4-fluorophenyl)-11-hydroxy-10a,12a-dimethyl-1,2,3,3a,3b,4,5,7,10,10a,10b,11,12,12a-tetradecahydrocyclopenta[5,6]naphtho[1,2-f]indazol-1-yl methoxyacetate]	8.59
COC(=O)[C@@]1(OC(=O)c2ccco2)CC[C@H]2[C@@H]3CCC4=Cc5c(cnn5-c5ccc(F)cc5)C[C@]4(C)[C@H]3[C@@H](O)C[C@@]21C [Example 66, Methyl (1R,3aS,3bS,10aR,10bS,11S,12aS)-7-(4-fluorophenyl)-1-[(furan-2-yl-carbonyl)oxy]-11-hydroxy-10a,12a-dimethyl-1,2,3,3a,3b,4,5,7,10,10a,10b,11,12,12a-tetradecahydrocyclopenta[5,6]naphtho[1,2-f]indazole-1-carboxylate]	8.48
